Some test systems named below: Saccharomyces cerevisiae; Candida krusei ATCC 6258; Escherichia coli D21; Bacillus megaterium Bm11; Escherichia coli ML-35; Escherichia coli K-12; Escherichia coli ML-35p.
What all share (experiment): ≥ marks a high value that may be exact or a test limit, other limits are often not marked, values filed in µg/mL are converted to µM
Assay [1] relates to Escherichia coli NCTC 10418.
In assay [2] the test system is Staphylococcus aureus NCTC 12981.
The subject of assay [3] is Staphylococcus aureus ATCC 25923.
The test system of assay [4] is Escherichia coli ATCC 25922.
Assay [5] deals with Listeria monocytogenes ATCC 7611.
Assay [6] has as its system Klebsiella aerogenes ATCC 13048.
In assay [7] the test system is Klebsiella pneumoniae ATCC 700603.
The subject of assay [8] is Staphylococcus aureus ATCC 29213.
Assay [9] concerns Lacticaseibacillus casei HZ1.
The subject of assay [10] is Trichosporon beigelii KCTC 7707.
For assay [11], the system named is Candida albicans KCTC 7270.
In assay [12] the test system is Pseudomonas aeruginosa 4891.
For assay [13], the system named is Escherichia coli CCARM 1238.
Assay [14] has as its system Staphylococcus aureus CCARM 3090.
The subject of assay [15] is Staphylococcus aureus CCARM 3518.
For assay [16], the system named is Escherichia coli CCARM 1229.
Assay [17] relates to Pseudomonas aeruginosa 4007.
The subject of assay [18] is Candida tropicalis ATCC 20240.
The test system of assay [19] is Candida albicans ATCC 2048.
Assay [20] relates to Candida parapsilosis ATCC 20224.
The test system of assay [21] is Candida glabrata ATCC 90525.
The test system of assay [22] is Staphylococcus epidermidis ATCC 12228.
The test system of assay [23] is Serratia marcescens ATCC 8100.
Assay [24] deals with Salmonella enterica subsp. enterica serovar Typhimurium ATCC 14028.
The test system of assay [25] is Staphylococcus epidermidis BM3302.
For assay [26], the system named is Staphylococcus aureus ATCC 6538.
In assay [27] the test system is Pseudomonas aeruginosa ATCC 27853.
Assay [28] relates to Escherichia coli ATCC 35218.
Assay [29] concerns Kocuria rhizophila ATCC 9341.
Assay [30] has as its system Staphylococcus aureus DAR 5829.
The test system of assay [31] is Enterococcus faecalis ATCC 29212.
Assay [32] has as its system Staphylococcus aureus ST1065.
For assay [33], the system named is Bacillus subtilis subsp. subtilis CIP 52.65.
Assay [34] relates to Escherichia coli ATCC 8739.
Assay [35] relates to Enterococcus faecium BM4147.

Converted amounts (≈) assume the structure as drawn.

In the case of `NC(=O)[C@H](Cc1c[nH]c2ccccc12)NC(=O)[C@H](CCCN=C(N)N)NC(=O)[C@@H](N)Cc1c[nH]c2ccccc12` [WRW], the MIC is ≥ 234 µM in assay [1], ≥ 234 µM in [2], 183 µM (≈ 99.8 µg/mL) in assay [3] and > 366 µM in [4].

In the case of `CC(C)C[C@H](NC(=O)[C@H](Cc1ccccc1)NC(=O)[C@H](CCCCN)NC(=O)[C@H](Cc1ccccc1)NC(=O)[C@H](Cc1ccccc1)NC(=O)[C@H](Cc1cnc[nH]1)NC(=O)[C@@H](NC(=O)[C@H](Cc1c[nH]c2ccccc12)NC(=O)[C@@H](NC(=O)[C@H](CO)NC(=O)[C@@H]1CCCN1C(=O)[C@H](CC(C)C)NC(=O)[C@H](Cc1ccccc1)NC(=O)[C@H](CC(C)C)NC(=O)[C@H](CCCCN)NC(=O)[C@H](CC(C)C)NC(=O)[C@@H]1CCCN1C(=O)[C@H](CC(N)=O)NC(=O)CN)[C@@H](C)O)C(C)C)C(=O)N[C@@H](CCCN=C(N)N)C(=O)O` [GNPLKLFLPSTWVHFFKFLR], the MIC in [5] is 4 µM (≈ 9.79 µg/mL); with Saccharomyces cerevisiae, ≥ 256 µM; in assay [6] it was ≥ 64 µM; in [7], > 256 µM; in [8], 4 µM (≈ 9.79 µg/mL); in assay [9] it was ≥ 32 µM.

Turning to `CC[C@H](C)[C@H](NC(=O)[C@H](CC(C)C)NC(=O)[C@H](CCCCN)NC(=O)[C@@H](NC(=O)[C@H](C)NC(=O)[C@H](CCC(=O)O)NC(=O)[C@H](Cc1cnc[nH]1)NC(=O)[C@@H](NC(=O)[C@H](CCCCN)NC(=O)[C@H](CCC(N)=O)NC(=O)[C@H](Cc1ccccc1)NC(=O)[C@@H](NC(=O)[C@H](CCCCN)NC(=O)[C@H](CCCCN)NC(=O)[C@H](CC(C)C)NC(=O)[C@H](C)NC(=O)[C@H](CC(N)=O)NC(=O)[C@@H](N)CC(C)C)C(C)C)[C@@H](C)CC)[C@@H](C)CC)C(N)=O` [LNALKKVFQKIHEAIKLI], the MIC in assay [10] was 8 µM (≈ 16.8 µg/mL); in assay [11] it was 16 µM (≈ 33.7 µg/mL); in [12], 4 µM (≈ 8.42 µg/mL); in [13], 2 µM (≈ 4.21 µg/mL); in assay [14], 4 µM (≈ 8.42 µg/mL); in assay [15] it was 4 µM (≈ 8.42 µg/mL). The MIC in assay [16] and in assay [17] was 2 µM (≈ 4.21 µg/mL) throughout.

For `C[C@H](NC(=O)CN)C(=O)N[C@@H](CCCCN)C(=O)N[C@@H](CCC(=O)O)C(=O)N[C@@H](CCCN=C(N)N)C(=O)N[C@@H](C)C(=O)N[C@@H](Cc1cnc[nH]1)C(=O)N[C@@H](CCC(N)=O)C(=O)O` [GAKERAHQ], the MIC against Candida krusei ATCC 6258 is ≥ 240 µM; in [18], ≥ 290 µM; in assay [19] it was ≥ 240 µM; in [20], ≥ 300 µM; in assay [21], ≥ 300 µM.

For `CC(C)C[C@H](NC(=O)[C@H](Cc1ccc(O)cc1)NC(=O)[C@@H]1CCCN1C(=O)[C@@H]1CCCN1C(=O)[C@H](CCCN=C(N)N)NC(=O)[C@@H]1CCCN1C(=O)[C@H](CCCN=C(N)N)NC(=O)[C@H](CCCN=C(N)N)NC(=O)[C@@H](N)CCCN=C(N)N)C(=O)N[C@@H](CCCN=C(N)N)C(=O)N1CCC[C@H]1C(=O)N[C@@H](CCCN=C(N)N)C(=O)N1CCC[C@H]1C(=O)N1CCC[C@H]1C(=O)N1CCC[C@H]1C(=O)O` [RRRPRPPYLRPRPPP], the MIC in the assay on Escherichia coli D21 was 16 µM (≈ 30.6 µg/mL); in [22] it was > 64 µM; with Bacillus megaterium Bm11, ≥ 32 µM; against Escherichia coli ML-35 it was ≥ 32 µM; in [23], ≥ 32 µM; in assay [24] it was 32 µM (≈ 61.2 µg/mL).

As for `CC[C@H](C)[C@H](NC(=O)CNC(=O)[C@H](Cc1c[nH]c2ccccc12)NC(=O)[C@@H](NC(=O)CN)C(C)C)C(=O)N[C@@H](C)C(=O)N[C@@H](CCCCN)C(=O)N[C@H](C(=O)N[C@@H](C)C(=O)NCC(=O)N[C@@H](CCCCN)C(=O)N[C@H](C(=O)N[C@@H](CC(C)C)C(=O)NCC(=O)N[C@@H](CC(N)=O)C(=O)N[C@H](C(=O)N[C@@H](CC(C)C)C(=O)N1CCC[C@H]1C(=O)N[C@@H](Cc1cnc[nH]1)C(=O)N[C@H](C(=O)N[C@@H](Cc1ccccc1)C(=O)N[C@@H](CO)C(=O)N[C@@H](CO)C(=O)N[C@@H](CC(N)=O)C(=O)N[C@@H](CCC(N)=O)C(=O)N[C@@H](CO)C(N)=O)C(C)C)[C@@H](C)CC)C(C)C)[C@@H](C)CC` [GVWGIAKIAGKVLGNILPHVFSSNQS], the MIC is 12.5 µM (≈ 33.7 µg/mL) in [25]; 6.25 µM (≈ 16.8 µg/mL) in assay [26]; ≥ 100 µM with Escherichia coli K-12; ≥ 100 µM in the assay on Escherichia coli ML-35p; > 100 µM in assay [27]; ≥ 100 µM in assay [28]. In addition, the MIC in [29] stood at 3.12 µM (≈ 8.4 µg/mL); in assay [30], 25 µM (≈ 67.3 µg/mL); in assay [31], 50 µM (≈ 135 µg/mL); in assay [32] it was 12.5 µM (≈ 33.7 µg/mL); in assay [8] it was 3.12 µM (≈ 8.4 µg/mL); in assay [33], 6.25 µM (≈ 16.8 µg/mL). The MIC in assay [34] and in [35] was 25 µM (≈ 67.3 µg/mL) throughout.
